Results: article PMC12080252, “Daphnia magna as an Alternative Model for (Simultaneous) Bioaccumulation and Chronic Toxicity Assessment—Controlled Exposure Study Indicates High Hazard of Heterocyclic PAHs” (Environmental Science & Technology, 2025)
Values joined by “and” are separate entries in the source; they are usually repeats but may differ in a detail not shown here. Equal values may be shown once.

Columns and labels:
[1] = Chronic reproduction toxicity test (OECD 211) with passive dosing; format: in vivo, Daphnia magna; conditions: Daphnia magna, in vivo, other: waterborne exposure by passive dosing from PDMS disks, 21-day test, read-out: % offspring mortality of total offspring
Procedure, shortened: (§1)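 D. magna juveniles (<24 h) exposed individually 21 days by passive dosing from PDMS disks, static, 20 °C, 16:8 h light/dark, medium renewed three times weekly, fed daily; water concentrations measured initially and before renewal. Offspring per mother versus controls gave percent inhibition; EC10/EC20/EC50 from four-parameter logistic fit of log10 concentrations (Top 100, Bottom 0).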

Daphnia magna = assay: as above; format: in vivo; conditions: for EC10: 21-day reproduction inhibition; for % inhibition, avr.: average of vessels; for #live offspring per mother, Total: one value per vessel; for wet weight of parent daphnids, change relative to control: end of 21-d exposure
Procedure, shortened: as §1

[2] = DNF 0.2 µg/L (0.125 g/L methanol), 21 days
[3] = DNF 0.41 µg/L (0.5 g/L methanol), 21 days
[4] = DNF 1.24 µg/L (1 g/L methanol), 21 days
[5] = DNF […] (0.25 g/L methanol), 21 days
[6] = DNF avr. medium concentration 1.35 µg/L, conc. of methanol for dosing 1.5 g/L, 21 days, single vessels 1-6 (replicates)

c1ccc2c(c1)ccc1oc3ccc4ccccc4c3c12 [DNF, dinaphtho[2,1-b:1′,2′-d]furan]
mortality at 21 days, 0.18 µg/L ([1]; 0.18 µg/L (Fig. S8)): 2.6% | mortality at 21 days, 0.24 µg/L ([1]; 0.24 µg/L (Fig. S8)): 5% | mortality at 21 days, 0.39 µg/L ([1]; 0.39 µg/L (Fig. S8)): 5.1% | mortality at 21 days, 1.16 µg/L ([1]; 1.16 µg/L (Fig. S8)): 11.8% | mortality at 21 days, 1.3 µg/L ([1]; 1.30 µg/L (Fig. S8)): 16.7% | mortality at 21 days, 1.44 µg/L ([1]; 1.44 µg/L (Fig. S8)): 42.2% | EC10 (Daphnia magna; 97.5-2.5% confidence interval in brackets): 0.14 (0.05-0.28) μg L^-1 | EC10 (Daphnia magna; confidence interval in brackets): 0.52 (0.18-1.03) nmol L^-1 | growth of parent D. magna (wet weight) (Daphnia magna; 21-day test, p-value <0.05): did not except at saturation | LOEC (lowest observed effect concentration, reproduction inhibition) (Daphnia magna; 21 days, p-value <0.05 vs controls): 0.2 μg L^–1 | #average live offspring (Daphnia magna; [2]): 75 | %offspring mortality (Daphnia magna; [2]): 2.61% | % inhibition, avr. (Daphnia magna; [2]): 12.9% | #total live offspring (Daphnia magna; DNF 0.2 µg/L (0.125 g/L methanol), 21 days, sum of all vessels): 447 | % inhibition (per vessel) (Daphnia magna; DNF 0.2 µg/L (0.125 g/L methanol), live offspring vs controls, 21 days, per vessel): 15.8% | #average live offspring (Daphnia magna; [3]): 63 | %offspring mortality (Daphnia magna; [3]): 5.09% | % inhibition, avr. (Daphnia magna; [3]): 25.8% | #total live offspring (Daphnia magna; DNF 0.41 µg/L (0.5 g/L methanol), 21 days, sum of all vessels): 317 | mother animal mortality (Daphnia magna; DNF 0.41 µg/L (0.5 g/L methanol), vessel 3, day 5): dead | #average live offspring (Daphnia magna; [4]): 59 | %offspring mortality (Daphnia magna; [4]): 11.81% | % inhibition, avr. (Daphnia magna; [4]): 31.6% | #total live offspring (Daphnia magna; DNF 1.24 µg/L (1 g/L methanol), 21 days, sum of all vessels): 351 | #average live offspring (Daphnia magna; [5]): 69 | %offspring mortality (Daphnia magna; [5]): 4.95% | % inhibition, avr. (Daphnia magna; [5]): 19.1% | #total live offspring (Daphnia magna; DNF […] (0.25 g/L methanol), 21 days, sum of all vessels): 346 | mother animal mortality (Daphnia magna; DNF […] (0.25 g/L methanol), vessel 6, day 5): dead | #live offspring per mother, Total (Daphnia magna; DNF avr. medium concentration 0.2 µg/L (methanol for dosing 0.125 g/L), 21 days): 75 and 64 and 72 and 66 and 98 | #live offspring per mother, Total (Daphnia magna; DNF avr. medium concentration 0.41 µg/L (methanol for dosing 0.5 g/L), 21 days): 59 and 75 and 67 and 55 and 61 | #live offspring per mother, Total (Daphnia magna; DNF avr. medium concentration 1.24 µg/L (methanol for dosing 1 g/L), 21 days): 62 and 51 and 53 and 60 and 50 and 75 | %offspring mortality (Daphnia magna; DNF avr. medium concentration 1.35 µg/L, conc. of methanol for dosing 1.5 g/L, 21 days): 16.71% | % inhibition, avr. (live offspring per mother) (Daphnia magna; DNF avr. medium concentration 1.35 µg/L, conc. of methanol for dosing 1.5 g/L, 21 days, average of 6 vessels): 39.8% | #average live offspring (Daphnia magna; DNF avr. medium concentration 1.35 µg/L, conc. of methanol for dosing 1.5 g/L, 21 days, mean of 6 vessels): 52 | #dead offspring per mother, Total (per vessel) (Daphnia magna; [6]): 9 and 12 and 16 and 5 and 8 | #live offspring per mother, Total (per vessel) (Daphnia magna; [6]): 49 and 74 and 37 and 40 and 53 and 56 | % inhibition (live offspring per mother, per vessel) (Daphnia magna; [6]): 42.7% and 13.5% and 56.7% and 53.2% and 38.0% and 34.5% | #total live offspring (Daphnia magna; DNF avr. medium concentration 1.35 µg/L, conc. of methanol for dosing 1.5 g/L, 21 days, sum of 6 vessels): 309 | EA50 (effective chemical activity) (Daphnia magna; EC50/subcooled liquid solubility, eq 1): 0.032 unitless | Classification according to REACH Annex XIII (Daphnia magna; chronic EC10 < 10 μg L^–1): toxic to aquatic life | CTLBB (critical target lipid body burden) (Daphnia magna; derived from chronic EC10 using eq 3): 3.4 μmol g^-1 octanol | wet weight of parent daphnids, change relative to control (Daphnia magna; 0.18 µg/L (Fig. S9)): +1% | wet weight of parent daphnids, change relative to control (Daphnia magna; 0.24 µg/L (Fig. S9)): -2% | wet weight of parent daphnids, change relative to control (Daphnia magna; 0.39 µg/L (Fig. S9)): -6% | wet weight of parent daphnids, change relative to control (Daphnia magna; 1.16 µg/L (Fig. S9)): 2% | wet weight of parent daphnids, change relative to control (Daphnia magna; 1.30 µg/L (Fig. S9)): -6% | wet weight of parent daphnids, change relative to control (Daphnia magna; 1.44 µg/L (Fig. S9)): -27%
